Data taken from patent publication US20260297118A1, “SUBSTITUTED PYRIMIDINONE AND AZAPYRIMIDINONE COMPOUNDS, COMPOSITIONS, AND USES THEREOF” (LAKEWOOD AMEDEX, INC., priority 2023, published 2026).

Experiments:
Type in all cases: cell-based
S. aureus ATCC -3591 = experiment: MIC, broth microdilution, S. aureus ATCC -3591; set-up: unit not given beside the values; conditions: S. aureus ATCC -3591, Gram +ve; pH 3; 18 to 24 hours
Procedure: (§1) MIC testing is conducted using the broth (Mueller Hinton Broth) microdilution procedures relevant to each organism group as established by the Clinical and Laboratory Standards Institute (CLSI; 3-7). MIC plates are prepared in accordance with CLSI (3-7). To prepare the test plates, automated liquid handlers are used to conduct serial dilutions and liquid transfers. Automated liquid handlers utilized in this study include the Multidrop 384 (Labsystems, Helsinki, Finland) and the Biomek 2000 (Beckman Coulter, Fullerton CA). The solution is diluted to desired pH using 1 M Citric Acid or 1 M NaOH buffer. A standardized inoculum of each test organism is prepared per CLSI methods (3, 5-7) to equal a 0.5 McFarland standard in the appropriate media followed by an additional 1:20 dilution (1:10 for anaerobes).
(§2) The plates are then inoculated with 10 μL of the diluted 0.5 McFarland suspension using the Biomek 2000 from low to high drug concentration, resulting in a final concentration of approximately 5×10^5 CFU/mL per well. An un-inoculated plate is incubated for the purpose of assessing solubility of the drug in the test media. The plates are stacked 3 to 4 high, covered with a sterile lid on the top plate, and incubated for 18 to 24 hours according to CLSI. The MIC is recorded as the lowest concentration of respective compound that inhibited visible growth of the organism.

C. striatum ATCC-6940 = experiment: MIC, broth microdilution, C. striatum ATCC-6940; conditions: C. striatum ATCC-6940, Gram +ve; pH 3; 18 to 24 hours
Procedure: as §1, §2

H. influenzae ATCC-49247 = experiment: MIC, broth microdilution, H. influenzae ATCC-49247; set-up: unit not given beside the values; conditions: H. influenzae ATCC-49247, Gram −ve; pH 3; 18 to 24 hours
Procedure: as §1, §2

S. pyogenes ATCC-49399 = experiment: MIC, broth microdilution, S. pyogenes ATCC-49399; set-up: unit not given beside the values; conditions: S. pyogenes ATCC-49399, Gram +ve; pH 3; 18 to 24 hours
Procedure: as §1, §2

[1] = tested on: S. saprophyticus ATCC-49907; experiment: MIC, broth microdilution, S. saprophyticus ATCC-49907; set-up: unit not given beside the values; conditions: S. saprophyticus ATCC-49907, Gram +ve; pH 3; 18 to 24 hours
Procedure: as §1, §2

K. pneumoniae ATCC-43816 = experiment: MIC, broth microdilution, K. pneumoniae ATCC-43816; set-up: unit not given beside the values; conditions: K. pneumoniae ATCC-43816, Gram −ve; pH 3; 18 to 24 hours
Procedure: as §1, §2

P. aeruginosa ATCC-27853 = experiment: MIC, broth microdilution, P. aeruginosa ATCC-27853; set-up: unit not given beside the values; conditions: P. aeruginosa ATCC-27853, Gram −ve; pH 3; 18 to 24 hours
Procedure: as §1, §2

[2] = tested on: S. dysgalactiae ATCC-6644; experiment: MIC, broth microdilution, S. dysgalactiae ATCC-6644; set-up: unit not given beside the values; conditions: S. dysgalactiae ATCC-6644, Gram +ve; pH 3; 18 to 24 hours
Procedure: as §1, §2

Escherichia coli (25922) = experiment: MIC, broth microdilution, Escherichia coli (25922); conditions: pH 3, Mueller Hinton Broth, 18 to 24 hours, read-out: MIC
Procedure: as §1, §2

C. freundii CDC-0157 = experiment: MIC, broth microdilution, C. freundii CDC-0157; set-up: unit not given beside the values; conditions: C. freundii CDC-0157, Gram −ve; pH 3; 18 to 24 hours
Procedure: as §1, §2

E. faecalis MMX-3353 = experiment: MIC, broth microdilution, E. faecalis MMX-3353; conditions: E. faecalis MMX-3353, Gram +ve; pH 3; 18 to 24 hours
Procedure: as §1, §2

[3] = tested on: K. pneumoniae ATCC BAA-2146; experiment: MIC, broth microdilution, K. pneumoniae ATCC BAA-2146; set-up: unit not given beside the values; conditions: K. pneumoniae ATCC BAA-2146, Gram −ve; pH 3; 18 to 24 hours
Procedure: as §1, §2

A. baumannii ATCC-19606 = experiment: MIC, broth microdilution, A. baumannii ATCC-19606; set-up: unit not given beside the values; conditions: A. baumannii ATCC-19606, Gram −ve; pH 3; 18 to 24 hours
Procedure: as §1, §2

E. faecium MMX-3355 = experiment: MIC, broth microdilution, E. faecium MMX-3355; set-up: unit not given beside the values; conditions: E. faecium MMX-3355, Gram +ve; pH 3; 18 to 24 hours
Procedure: as §1, §2

E. cloacae ATCC BAA-2468 = experiment: MIC, broth microdilution, E. cloacae ATCC BAA-2468; set-up: unit not given beside the values; conditions: E. cloacae ATCC BAA-2468, Gram −ve; pH 3; 18 to 24 hours
Procedure: as §1, §2

[4] = tested on: S. haemolyticus ATCC-29970; experiment: MIC, broth microdilution, S. haemolyticus ATCC-29970; conditions: S. haemolyticus ATCC-29970, Gram +ve; pH 3; 18 to 24 hours
Procedure: as §1, §2

M. morganii CDC-0519 = experiment: MIC, broth microdilution, M. morganii CDC-0519; set-up: unit not given beside the values; conditions: M. morganii CDC-0519, Gram −ve; pH 3; 18 to 24 hours
Procedure: as §1, §2

[5] = tested on: A. radioresistens MMX-8551; experiment: MIC, broth microdilution, A. radioresistens MMX-8551; set-up: unit not given beside the values; conditions: A. radioresistens MMX-8551, Gram −ve; pH 3; 18 to 24 hours
Procedure: as §1, §2

E. coli MMX-8870 = experiment: MIC, broth microdilution, E. coli MMX-8870; conditions: E. coli MMX-8870, Gram −ve; pH 3; 18 to 24 hours
Procedure: as §1, §2

P. mirabilis CDC-0155 = experiment: MIC, broth microdilution, P. mirabilis CDC-0155; set-up: unit not given beside the values; conditions: P. mirabilis CDC-0155, Gram −ve; pH 3; 18 to 24 hours
Procedure: as §1, §2

[6] = tested on: Pseudomonas aeruginosa (27853); experiment: MIC, broth microdilution, Pseudomonas aeruginosa (27853); conditions: pH 3, Mueller Hinton Broth, 18 to 24 hours, read-out: MIC
Procedure: as §1, §2

S. aureus ATCC-29213 = experiment: MIC, broth microdilution, S. aureus ATCC-29213; set-up: unit not given beside the values; conditions: S. aureus ATCC-29213, Gram +ve; pH 3; 18 to 24 hours
Procedure: as §1, §2

S. agalactiae ATCC-13813 = experiment: MIC, broth microdilution, S. agalactiae ATCC-13813; set-up: unit not given beside the values; conditions: S. agalactiae ATCC-13813, Gram +ve; pH 3; 18 to 24 hours
Procedure: as §1, §2

E. faecalis ATCC-29212 = experiment: MIC, broth microdilution, E. faecalis ATCC-29212; set-up: unit not given beside the values; conditions: E. faecalis ATCC-29212, Gram +ve; pH 3; 18 to 24 hours
Procedure: as §1, §2

E. faecium ATCC-35667 = experiment: MIC, broth microdilution, E. faecium ATCC-35667; conditions: E. faecium ATCC-35667, Gram +ve; pH 3; 18 to 24 hours
Procedure: as §1, §2

E. coli ATCC-25922 = experiment: MIC, broth microdilution, E. coli ATCC-25922; set-up: unit not given beside the values; conditions: E. coli ATCC-25922, Gram −ve; pH 3; 18 to 24 hours
Procedure: as §1, §2

[7] = tested on: Staphylococcus aureus (43330); experiment: MIC, broth microdilution, Staphylococcus aureus (43330); conditions: pH 3, Mueller Hinton Broth, 18 to 24 hours, read-out: MIC
Procedure: as §1, §2

Candida albicans (22972) = experiment: MIC, broth microdilution, Candida albicans (22972); conditions: pH 3, Mueller Hinton Broth, 18 to 24 hours, read-out: MIC
Procedure: as §1, §2

Compound CCCCOP(=O)(O)OC[C@@H]1CC[C@H](n2ccc(N)nc2=O)O1 [LAI-007, ((2S,5R)-5-(4-amino-2-oxopyrimidin-1(2H)-yl)tetrahydrofuran-2-yl)methyl butyl hydrogen phosphate] has an MIC (S. aureus ATCC -3591) of 6.25, an MIC (C. striatum ATCC-6940) of 1.56 and an MIC (H. influenzae ATCC-49247) of 1.56. The MIC (S. pyogenes ATCC-49399) was 3.13, the MIC [1] was 3.13 and the MIC (K. pneumoniae ATCC-43816) was 12.50. It also gave an MIC (P. aeruginosa ATCC-27853) of 8.75, an MIC [2] of 12.50 and an MIC (Escherichia coli (25922)) of 25 mg/mL. For the same compound, the MIC (C. freundii CDC-0157) was 3.13, the MIC (E. faecalis MMX-3353) was 6.25 and the MIC [3] was 6.25. The MIC (A. baumannii ATCC-19606) was 6.25, the MIC (E. faecium MMX-3355) was 6.25 and the MIC (E. cloacae ATCC BAA-2468) was 6.25. The MIC [4] was 6.25, the MIC (M. morganii CDC-0519) was 3.13 and the MIC [5] was 6.25. The MIC (E. coli MMX-8870) was 12.50, the MIC (P. mirabilis CDC-0155) was 3.13 and the MIC [6] was 5 mg/mL. It also gave an MIC (S. aureus ATCC-29213) of 6.25, an MIC (S. agalactiae ATCC-13813) of 1.56 and an MIC (E. faecalis ATCC-29212) of 6.25. For the same compound, the MIC (E. faecium ATCC-35667) was 6.25, the MIC (E. coli ATCC-25922) was 6.25 and the MIC [7] was 5 mg/mL.
Compound CCCCCCCCOP(=O)(O)OC[C@H]1O[C@@H](n2ccc(N)nc2=O)C[C@@H]1O [LAI-001, ((2R,3S,5R)-5-(4-amino-2-oxopyrimidin-1(2H)-yl)-3-hydroxytetrahydrofuran-2-yl)methyl octyl hydrogen phosphate] has an MIC (Candida albicans (22972)) of 20 mg/mL, an MIC (Escherichia coli (25922)) of 20 mg/mL and an MIC [6] of 20 mg/mL. It also gave an MIC [7] of 20 mg/mL.
In the case of CCCCCCOP(=O)(O)OC[C@H]1O[C@@H](n2ccc(N)nc2=O)C[C@@H]1O [LAI-002, ((2R,3S,5R)-5-(4-amino-2-oxopyrimidin-1(2H)-yl)-3-hydroxytetrahydrofuran-2-yl)methyl hexyl hydrogen phosphate], the MIC (Candida albicans (22972)) is reported as 50 mg/mL, the MIC (Escherichia coli (25922)) is reported as 25 mg/mL and the MIC [6] is reported as 5 mg/mL. It also gave an MIC [7] of 25 mg/mL.
With CC(C)COP(=O)(O)OC[C@H]1O[C@@H](n2ccc(N)nc2=O)C[C@@H]1O [LAI-003, ((2R,3S,5R)-5-(4-amino-2-oxopyrimidin-1(2H)-yl)-3-hydroxytetrahydrofuran-2-yl)methyl isobutyl hydrogen phosphate] the MIC (Candida albicans (22972)) was 20 mg/mL, the MIC (Escherichia coli (25922)) was 20 mg/mL and the MIC [6] was 20 mg/mL. It also gave an MIC [7] of 20 mg/mL.
In the case of CC(C)CCOP(=O)(O)OC[C@H]1O[C@@H](n2ccc(N)nc2=O)C[C@@H]1O [LAI-004, ((2R,3S,5R)-5-(4-amino-2-oxopyrimidin-1(2H)-yl)-3-hydroxytetrahydrofuran-2-yl)methyl isopentyl hydrogen phosphate], the MIC (Candida albicans (22972)) is reported as 50 mg/mL, the MIC (Escherichia coli (25922)) is reported as 25 mg/mL and the MIC [6] is reported as 5 mg/mL. For the same compound, the MIC [7] was 50 mg/mL.
